IC50 data for 18 compounds are collected here from US9918990B2, “Substituted pyrrolo[2,3-c]pyridines and pyrazolo[3,4-c]pyridines as BET protein inhibitors” (Incyte Corporation, priority 2013, dated 2018).

One experiment has as its target BRD4-BD1 (Homo sapiens (Human), UniProt O60885). Put plainly: BRD4 AlphaScreen assay, BRD4-BD1. The experiment is classed as binding. The settings on record: H4Ac4 peptide, 75 min, room temperature, read-out: BRD4 BD-1 enzyme IC50. As to the method: (§1) BRD4-BD1 and BRD4-BD2 assays were conducted in white 384-well polystyrene plate in a final volume of 20 μL for BD1 and 40 μL for BD2. Inhibitors were first serially diluted in DMSO and added to the plate wells before the addition of other reaction components. […] After plate sealing, the plate was incubated in the dark at room temperature for 75 min. before reading on a PHERAstar FS plate reader (BMG Labtech). IC50 determination was performed by fitting the curve of percent control activity versus the log of the inhibitor concentration using the GraphPad Prism 5.0 software.
On the technique in general: Alpha assays give light when donor and acceptor beads are brought close together.

Another experiment addresses BRD4-BD2 (Homo sapiens (Human), UniProt O60885). Put plainly: BRD4 AlphaScreen assay, BRD4-BD2. It counts as binding. The conditions noted are these: H4Ac4 peptide, 75 min, room temperature, read-out: BRD4 BD-2 enzyme IC50. As for the experimental part: as §1
The subject of another experiment is KMS.12.BM cells. Nature of the experiment: KMS.12.BM cell viability assay (Cell Titer-GLO, ATP quantitation). It counts as cell-based. The settings on record: Homo sapiens, 72 h, 3 days, concentration required for 50% cell death, read-out: KMS cellular IC50. As for the experimental part:
KMS.12.BM cell line (human myeloma) was purchased from JCRB (Osaka, Japan) and maintained in RPMI with 10% FBS culture medium. To measure the cytotoxic activity of the compounds through ATP quantitation, the KMS.12.BM cells are plated in the RPMI culture medium at 5000 cells/well/per 100 μL into a 96-well polystyrene clear black tissue culture plate (Greiner-bio-one through VWR, NJ), in the presence or absence of a concentration range of test compounds. After 3 days, […] Cell Titer-GLO Luminescent (Promega, Madison, Wis.) cell culture agent is added to each well for 10 minutes at room temperature to stabilize the luminescent signal. This determines the number of viable cells in culture based on quantitation of the ATP present, which signals the presence of metabolically active cells. Luminescence is measured with the Top Count 384 (Packard Bioscience through Perkin Elmer, Boston, Mass.). Compound inhibition is determined relative to cells cultured with no drug and the IC50 is reported as the compound concentration required for 50% cell death. IC50 data for the Examples is presented in Table 9 as determined by Assay B1.
(ATP-based viability assays read luminescence as a measure of living cells.)

The test system of the next experiment is C-myc. Nature of the experiment: KMS.12.BM C-myc ELISA assay. It counts as cell-based. The settings on record: Homo sapiens; KMS.12.BM cells, 2 hours, concentration required for 50% C-myc inhibition. As for the experimental part:
KMS.12.BM cell line (human myeloma) was purchased from JCRB (Osaka, Japan) and maintained in RPMI with 10% FBS culture medium. To measure the C-myc inhibitory activity of the compounds, the KMS.12.BM cells are plated in the RPMI culture medium at 75000 cells/well/per 200 μL into a 96-well flat bottom polystyrene tissue culture plate (Corning through VWR, NJ), in the presence or absence of a concentration range of test compounds. After 2 hours, cell are pelleted and lysed with Cell Extraction Buffer (BioSource, Carlsbad, Calif.) in the presence of protease inhibitors (Life Technologies, Grand Island, N.Y. and Sigma, St Louis, Mo.). Clarified lyses are tested in a C-myc commercial ELISA (Life Technologies, Grand Island, N.Y.). Compound inhibition is determined relative to cells cultured with no drug and the IC50 is reported as the compound concentration required for 50% C-myc inhibition. IC50 data for the Examples is presented in Table 10 as determined by Assay C1.
In general terms: In an ELISA, binding on a coated surface is turned into a signal by an enzyme label.

In general, IC50 refers to the concentration that gives 50% inhibition. As for `Cn1cc(-c2ccc3c([nH]c(=O)n3C)c2Oc2ccc(F)cc2F)c2cc[nH]c2c1=O` [Example 6, 4-(2,4-Difluorophenoxy)-1-methyl-5-(6-methyl-7-oxo-6,7-dihydro-1H-pyrrolo[2,3-c]pyridin-4-yl)-1,3-dihydro-2H-benzimidazol-2-one], the half-maximal inhibitory concentration (IC50) is < 100 nM on BRD4-BD1, < 100 nM at BRD4-BD2, ≤ 1000 nM in the experiment with KMS.12.BM cells and ≤ 1000 nM in the experiment on C-myc.

In the case of `Cn1cc(-c2ccc3c(ncn3CCc3ccccc3)c2Oc2ccccc2)c2cc[nH]c2c1=O` [Example 48, 6-Methyl-4-[4-phenoxy-1-(2-phenylethyl)-1H-benzimidazol-5-yl]-1,6-dihydro-7H-pyrrolo[2,3-c]pyridin-7-one], the IC50 was < 100 nM at BRD4-BD1, < 100 nM at BRD4-BD2, ≤ 1000 nM with KMS.12.BM cells and ≤ 1000 nM with C-myc.

With `Cn1cc(-c2ccc3c(ncn3CC(=O)N3CCOCC3)c2Oc2ccc(F)cc2F)c2cc[nH]c2c1=O` [Example 31, 4-[4-(2,4-difluorophenoxy)-1-(2-morpholin-4-yl-2-oxoethyl)-1H-benzimidazol-5-yl]-6-methyl-1,6-dihydro-7H-pyrrolo[2,3-c]pyridin-7-one], the IC50 at BRD4-BD1 is < 100 nM; at BRD4-BD2, < 100 nM; in the experiment with KMS.12.BM cells it was ≤ 1000 nM; with C-myc, ≤ 1000 nM.

As for `Cn1cc(-c2ccc3c(cnn3C)c2OCC2CC2)c2cc[nH]c2c1=O` [Example 76, 4-[4-(Cyclopropylmethoxy)-1-methyl-1H-indazol-5-yl]-6-methyl-1,6-dihydro-7H-pyrrolo[2,3-c]pyridin-7-one], the IC50 on BRD4-BD1 is < 100 nM; on BRD4-BD2 it was < 100 nM; in the experiment on KMS.12.BM cells it was ≤ 1000 nM; in the experiment with C-myc, ≤ 1000 nM.

For the compound `Cn1cc(-c2ccc3[nH]nnc3c2Oc2ccc(F)cc2F)c2cc[nH]c2c1=O` [Example 8, 4-[4-(2,4-Difluorophenoxy)-1H-1,2,3-benzotriazol-5-yl]-6-methyl-1,6-dihydro-7H-pyrrolo[2,3-c]pyridin-7-one], the IC50 on BRD4-BD1 is < 100 nM; at BRD4-BD2, < 100 nM; in the experiment on KMS.12.BM cells, ≤ 1000 nM; in the experiment on C-myc, ≤ 1000 nM.

For `Cn1cc(-c2ccc3ncn(CCCC#N)c3c2Oc2ccccc2)c2cc[nH]c2c1=O` [Example 51, 4-[6-(6-Methyl-7-oxo-6,7-dihydro-1H-pyrrolo[2,3-c]pyridin-4-yl)-7-phenoxy-1H-benzimidazol-1-yl]butanenitrile], the half-maximal inhibitory concentration (IC50) is < 100 nM on BRD4-BD1, < 100 nM at BRD4-BD2, ≤ 1000 nM with KMS.12.BM cells and ≤ 1000 nM with C-myc.

On to `Cc1nc2c(Oc3ccc(F)cc3F)c(-c3cn(C)c(=O)c4[nH]ncc34)ccc2[nH]1` [Example 15, 4-[4-(2,4-Difluorophenoxy)-2-methyl-1H-benzimidazol-5-yl]-6-methyl-1,6-dihydro-7H-pyrazolo[3,4-c]pyridin-7-one], for which the IC50 at BRD4-BD1 was < 100 nM; at BRD4-BD2 it was < 100 nM; with KMS.12.BM cells, ≤ 1000 nM; with C-myc, ≤ 1000 nM.

Take `CN1C(=O)COc2ccc(-c3cn(C)c(=O)c4[nH]ccc34)c(Oc3ccccc3)c21` [Example 100, 4-Methyl-6-(6-methyl-7-oxo-6,7-dihydro-1H-pyrrolo[2,3-c]pyridin-4-yl)-5-phenoxy-2H-1,4-benzoxazin-3(4H)-one]: the IC50 on BRD4-BD1 is 100 to 1000 nM; on BRD4-BD2, < 100 nM; in the experiment with KMS.12.BM cells, ≤ 1000 nM.

On to `Cn1cc(-c2ccc3c(c2OCC2CCC2)n(CCc2ccccc2)c(=O)n3C)c2cc[nH]c2c1=O` [Example 63, 4-(Cyclobutylmethoxy)-1-methyl-5-(6-methyl-7-oxo-6,7-dihydro-1H-pyrrolo[2,3-c]pyridin-4-yl)-3-(2-phenylethyl)-1,3-dihydro-2H-benzimidazol-2-one], for which the IC50 is < 100 nM on BRD4-BD1, < 100 nM on BRD4-BD2 and ≤ 1000 nM in the experiment with KMS.12.BM cells.

In the case of `CN(C)C(=O)Cn1cnc2ccc(-c3cn(C)c(=O)c4[nH]ccc34)c(Oc3ccc(F)cc3F)c21` [Example 33, 2-[7-(2,4-Difluorophenoxy)-6-(6-methyl-7-oxo-6,7-dihydro-1H-pyrrolo[2,3-c]pyridin-4-yl)-1H-benzimidazol-1-yl]-N,N-dimethylacetamide], the IC50 at BRD4-BD1 was < 100 nM; at BRD4-BD2 it was < 100 nM; in the experiment with KMS.12.BM cells it was ≤ 1000 nM.

As to `Cn1cc(-c2ccc3c(nc(CNC(=O)C4CCC4)n3C)c2Oc2ccccc2)c2cc[nH]c2c1=O` [Example 111, N-{[1-Methyl-5-(6-methyl-7-oxo-6,7-dihydro-1H-pyrrolo[2,3-c]pyridin-4-yl)-4-phenoxy-1H-benzimidazol-2-yl]methyl}cyclobutanecarboxamide], the IC50 on BRD4-BD1 was < 100 nM; at BRD4-BD2 it was < 100 nM; in the experiment with KMS.12.BM cells, ≤ 1000 nM.

Consider `Cn1cc(-c2ccc3c([nH]c(=O)n3C)c2Sc2ccccc2)c2cc[nH]c2c1=O` [Example 97, 1-Methyl-5-(6-methyl-7-oxo-6,7-dihydro-1H-pyrrolo[2,3-c]pyridin-4-yl)-4-(phenylthio)-1,3-dihydro-2H-benzimidazol-2-one], for which the figures for the IC50 on BRD4-BD1, at BRD4-BD2 and in the experiment with KMS.12.BM cells were < 100 nM, < 100 nM and ≤ 1000 nM, respectively.

Turning to `Cn1cc(-c2ccc3c(c2OCC2CCC2)n(CCC2CCNCC2)c(=O)n3C)c2cc[nH]c2c1=O` [Example 65, 4-(Cyclobutylmethoxy)-1-methyl-5-(6-methyl-7-oxo-6,7-dihydro-1H-pyrrolo[2,3-c]pyridin-4-yl)-3-(2-piperidin-4-ylethyl)-1,3-dihydro-2H-benzimidazol-2-one], the IC50 at BRD4-BD1 is < 100 nM; at BRD4-BD2 it was < 100 nM; in the experiment on KMS.12.BM cells, 1000 to 10000 nM.

In the case of `COc1c(-c2cn(C)c(=O)c3[nH]ccc23)ccc2c1n(CCc1ccccc1)c(=O)n2C` [Example 49, 4-Methoxy-1-methyl-5-(6-methyl-7-oxo-6,7-dihydro-1H-pyrrolo[2,3-c]pyridin-4-yl)-3-(2-phenylethyl)-1,3-dihydro-2H-benzimidazol-2-one], the IC50 on BRD4-BD1 is 100 to 1000 nM; on BRD4-BD2 it was < 100 nM; in the experiment on KMS.12.BM cells it was ≤ 1000 nM.

With `CCSc1c(-c2cn(C)c(=O)c3[nH]ccc23)ccc2c1[nH]c(=O)n2C` [Example 98, 4-(Ethylthio)-1-methyl-5-(6-methyl-7-oxo-6,7-dihydro-1H-pyrrolo[2,3-c]pyridin-4-yl)-1,3-dihydro-2H-benzimidazol-2-one], the results for the IC50 on BRD4-BD1, on BRD4-BD2 and in the experiment on KMS.12.BM cells were < 100 nM, < 100 nM and ≤ 1000 nM, respectively.

Take `COc1c(-c2cn(C)c(=O)c3[nH]ccc23)ccc2c1n(Cc1ccccc1)c(=O)n2C` [Example 44, 3-Benzyl-4-methoxy-1-methyl-5-(6-methyl-7-oxo-6,7-dihydro-1H-pyrrolo[2,3-c]pyridin-4-yl)-1,3-dihydro-2H-benzimidazol-2-one]: the values for the IC50 on BRD4-BD1, on BRD4-BD2 and with KMS.12.BM cells were < 100 nM, < 100 nM and ≤ 1000 nM, respectively.

Turning to `Cn1cc(-c2ccc3c(nc(CNC(=O)C4CC4)n3C)c2Oc2ccccc2)c2cc[nH]c2c1=O` [Example 112, N-{[1-Methyl-5-(6-methyl-7-oxo-6,7-dihydro-1H-pyrrolo[2,3-c]pyridin-4-yl)-4-phenoxy-1H-benzimidazol-2-yl]methyl}cyclopropanecarboxamide], the IC50 at BRD4-BD1 was < 100 nM; at BRD4-BD2 it was < 100 nM; in the experiment with KMS.12.BM cells it was ≤ 1000 nM.

Take `Cn1cc(-c2ccc3[nH]c(=O)[nH]c3c2OC2CCC(F)(F)CC2)c2cc[nH]c2c1=O` [Example 23, 4-[(4,4-Difluorocyclohexyl)oxy]-5-(6-methyl-7-oxo-6,7-dihydro-1H-pyrrolo[2,3-c]pyridin-4-yl)-1,3-dihydro-2H-benzimidazol-2-one]: the figures for the IC50 at BRD4-BD1, on BRD4-BD2 and in the experiment on KMS.12.BM cells were < 100 nM, < 100 nM and ≤ 1000 nM, respectively.
